{"source": "patent US9670482B2", "about": "“Multispecific peptides” (BICYCLE THERAPEUTICS LIMITED, priority 2009, dated 2017)", "key": {"Kallikrein": {"target": "T1, Kallikrein (Homo sapiens, UniProt P03952)", "T1 construct": "purchased Sigma Aldrich", "T1 sequence (P03952 20-638)": "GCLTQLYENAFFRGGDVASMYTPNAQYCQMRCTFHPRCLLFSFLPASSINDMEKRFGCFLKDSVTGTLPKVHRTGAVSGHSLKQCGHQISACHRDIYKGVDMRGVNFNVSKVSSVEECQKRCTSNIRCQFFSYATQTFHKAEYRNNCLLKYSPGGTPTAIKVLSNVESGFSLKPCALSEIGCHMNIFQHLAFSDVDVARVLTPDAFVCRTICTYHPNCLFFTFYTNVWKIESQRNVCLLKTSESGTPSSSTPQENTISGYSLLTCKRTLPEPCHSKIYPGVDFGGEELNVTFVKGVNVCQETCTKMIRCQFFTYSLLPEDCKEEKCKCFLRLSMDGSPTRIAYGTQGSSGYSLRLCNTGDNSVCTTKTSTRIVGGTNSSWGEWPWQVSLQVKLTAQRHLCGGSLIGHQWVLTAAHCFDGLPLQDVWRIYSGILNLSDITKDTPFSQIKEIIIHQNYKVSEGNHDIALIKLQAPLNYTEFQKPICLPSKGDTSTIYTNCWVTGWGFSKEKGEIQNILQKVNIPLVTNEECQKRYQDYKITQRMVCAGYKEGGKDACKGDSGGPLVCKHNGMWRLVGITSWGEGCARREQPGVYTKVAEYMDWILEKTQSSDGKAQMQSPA", "assay": "Kallikrein assays (Z-Phe-Arg-amc substrate)", "type": "biochemical", "details": "IC50 for inhibition of kallikrein activity, 0.1 nM kallikrein, 100 μM substrate, 30° C.", "procedure": "Enzymes were purchased from Sigma Aldrich and substrates from Bachem A G. The assay buffer is composed of 10 mM Tris pH 7.4, 150 mM NaCl, 10 mM MgCl2, 1 mM CaCl2, 0.1% BSA, 0.01% Triton X100 and 5% DMSO. Enzymes are incubated with inhibitors for 30 minutes at RT prior to addition of substrate. All experiments were recorded at 30° C. for 90 minutes.\nAssays were performed on a BMG Pherastar plate reader at wavelengths of exc/em 350/450 nm. Kallikrein was bought as a solution of 1080 μg/mL and diluted to a working concentration of 0.3 nM in assay buffer. Substrate Z-Phe-Arg-amc was solubilised at the stock concentration of 10 mM in DMSO and diluted to a working concentration of 300 μM with assay buffer. Inhibitors were solubilised in assay buffer to a stock concentration of 60 μM. 50 μL of each reagent is introduced in wells for a final volume of 150 μL per well. Final concentration of kallikrein in assay is 0.1 nM and substrate is 100 μM.\nFinal concentrations of inhibitors were: 0.5 nM, 1 nM, 2 nM, 5 nM, 8 nM, 10 nM, 20 nM, 50 nM, 80 nM, 100 nM, 200 nM, 500 nM, 800 nM, 1 μM, 2 μM, 5 μM, 8 μM, 10 μM and 20 μM. The initial rate of the reaction is obtained by plotting fluorescence=f (time) data and by fitting a linear trendline for each concentration of inhibitor. The inhibition curves are obtained by plotting initial rate=f ([I]) and IC50 values can be evaluated."}, "[1]": {"target": "bovine serum albumin (BSA) (Bos taurus, UniProt P02769)", "sequence (P02769 25-607)": "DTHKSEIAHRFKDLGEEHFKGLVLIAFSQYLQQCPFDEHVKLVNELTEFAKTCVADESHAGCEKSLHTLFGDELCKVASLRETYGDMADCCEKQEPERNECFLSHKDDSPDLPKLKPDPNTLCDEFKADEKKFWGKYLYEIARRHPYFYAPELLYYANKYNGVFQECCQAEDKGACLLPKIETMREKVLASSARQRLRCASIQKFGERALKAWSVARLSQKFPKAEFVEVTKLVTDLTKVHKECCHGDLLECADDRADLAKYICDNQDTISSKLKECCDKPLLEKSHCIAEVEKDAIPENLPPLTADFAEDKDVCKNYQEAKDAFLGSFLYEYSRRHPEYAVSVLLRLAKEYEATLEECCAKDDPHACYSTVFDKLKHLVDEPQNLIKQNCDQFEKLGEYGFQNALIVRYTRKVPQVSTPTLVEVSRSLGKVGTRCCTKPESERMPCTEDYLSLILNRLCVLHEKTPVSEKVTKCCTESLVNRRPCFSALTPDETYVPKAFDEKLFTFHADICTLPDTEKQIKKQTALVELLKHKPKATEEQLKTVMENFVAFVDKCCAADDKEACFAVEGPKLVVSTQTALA", "assay": "Fluorescence anisotropy titration with BSA", "details": "for binding to BSA (change in anisotropy): titration with BSA, FIG. 4", "from_the_text": "For determining the affinity constant (Kd) of a fluorophore to target protein, we chose fluorescence anisotropy titrations.\nExcitation was specific for coumarin (328 nm), and emission at 393 nm.\nTo determine whether a neighbouring group (here, Gly) on Fmoc affects binding to BSA, a similar experiment was run with Fmoc-Gly-OH (Nova Biochem). The intrinsic fluorescing properties of Fmoc were used for the anisotropy experiments.\nTo determine whether a neighbouring hydrophobic bulky group has an enhancing or adverse effect on BSA binding, Fmoc-Phe-OH was tested as above.\nThe solid phase resin employed was PAL-PEG-PS from Applied Biosystems. […] All peptides were capped with an N-terminal Fmoc, and a C-terminal amide (NH2). After cleavage, peptides were lyophilised, and solubilised in 5 mL of DMF. 100 μl of this was loaded onto an analytical C18 column using a Waters HPLC, using methanol and water (both in the presence of 0.1% TFA) as solvents. […] The peptide concentration in the cuvette was 200 nM.\nExcitation was at 299 nm (to minimise Trp absorption), and emission at 320 nm. Slit widths were at 5 and 12 nm, respectively.\nPeptide concentrations were estimated by the absorbance at 299 nm, using the extinction coefficient of 4700/M/cm. Excitation was at 299 nm, and emission was set to 320 nm, at slit widths of 5 and 12 nm, respectively."}, "Cathepsin G": {"target": "T2, Cathepsin G (Homo sapiens, UniProt P08311)", "T2 sequence (P08311 21-244)": "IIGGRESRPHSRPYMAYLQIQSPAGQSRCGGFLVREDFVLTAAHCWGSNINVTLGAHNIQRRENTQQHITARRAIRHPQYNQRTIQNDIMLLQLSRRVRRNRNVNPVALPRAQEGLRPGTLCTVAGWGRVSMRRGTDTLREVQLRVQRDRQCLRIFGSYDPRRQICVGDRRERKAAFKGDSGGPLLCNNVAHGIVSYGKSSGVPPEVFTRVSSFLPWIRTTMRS", "assay": "Peptide conjugate digestion with Cathepsin G", "type": "in vitro ADME", "set-up": "key to the marks not given beside the values", "details": "37° C. for 1 hr", "procedure": "(§1) Linear peptides (PK15 and CG4L1-PK15L1) were first treated with iodoacetamide prior to digestion studies. The peptides (ca 3-4 mg) were purified by HPLC (semi-prep Proteo column as described in general methods), and the HPLC fraction (ca 3 ml) was neutralised with an equal volume of 50 mM ammonium bicarbonate. […] The reaction mixture was concentrated (rotary evaporator) and re-purified by HPLC as above.\n(§2) Peptides (linear and conjugates) were dissolved in water at a concentration of 1 mg/ml, giving an effective concentration of −0.5 mM stock solutions. 2 μl of peptide conjugates (˜30 μM in reactions depending on actual molecular weight) where dissolved in reaction buffer (see below) in a total reaction volume of 30 μl, followed by the protease, and samples were incubated at 37° C. for 1 hr. 10 μl aliquots were quenched into 20 μl of 10% dichloroacetic acid in MeCN/H2O (1:1) and stored at −20° C. for 30 minutes, centrifuged at 4° C. (13000 rpm) for 5 minutes and then spotted onto MALDI-TOF mass spectrometer plate for analysis.\n(§3) All reactions at 37° C. Cathepsin G and kalikrein reactions were carried out in 10 mM Tris pH 7.4, 150 mM NaCl, 10 mM MgCl2, 1 mM CaCl2, 0.1% BSA, 0.01% Triton X100, 5% DMSO. Chymotrypsin reactions were carried out in 100 mM Tris pH 7.4, 10 mM CaCl2. Pronase and proteinase K reactions were carried out in 100 mM Tris pH 7.4, 0.5% SDS. Subtilisin reactions were carried out in 50 mM KH2PO4 pH 7.5. Trypsin reactions were carried out in 67 mM sodium phosphate pH 7.6. Reaction conditions with serum involve dissolving the peptide in 1×PBS (total volume 24 μl) and 6 μl of human serum added to the reaction."}, "Subtilisin": {"tested_on": "Subtilisin", "assay": "Peptide conjugate digestion with Subtilisin", "type": "in vitro ADME", "details": "37° C. for 1 hr", "procedure": "as §1, §2, §3"}, "Chymotrypsin": {"tested_on": "Chymotrypsin", "assay": "Peptide conjugate digestion with Chymotrypsin", "type": "in vitro ADME", "details": "37° C. for 1 hr", "procedure": "as §1, §2, §3"}, "Trypsin": {"tested_on": "Trypsin", "assay": "Peptide conjugate digestion with Trypsin", "type": "in vitro ADME", "details": "37° C. for 1 hr", "procedure": "as §1, §2, §3"}, "Kalikrein": {"target": "Kalikrein (Homo sapiens, UniProt P03952)", "sequence (P03952 20-638)": "as the sequence (P03952 20-638) above", "assay": "Peptide conjugate digestion with Kalikrein", "type": "in vitro ADME", "set-up": "digestion with Kalikrein: key to the marks not given beside the values", "details": "37° C. for 1 hr", "procedure": "as §1, §2, §3"}, "Pronase": {"tested_on": "Pronase", "assay": "Peptide conjugate digestion with Pronase", "type": "in vitro ADME", "set-up": "key to the marks not given beside the values", "details": "37° C. for 1 hr", "procedure": "as §1, §2, §3"}}, "note": "Residues, ends and D or L forms follow the SMILES beside them.", "data": [{"smiles": "CC[C@H](C)[C@@H]1NC(=O)[C@@H]2CSCc3cc4cc(c3)CSC[C@H](NC(=O)[C@H](CC(N)=O)NC(=O)[C@H](CCCNC(=N)N)NC(=O)[C@H](Cc3ccccc3)NC(=O)[C@H](CCCNC(=N)N)NC(=O)[C@H](CC(=O)O)NC(=O)[C@H](CO)NC(=O)[C@H](CSC4)NC(=O)[C@H](Cc3ccccc3)NC(=O)CNC(=O)[C@H](CC(C)C)NC(=O)[C@H](CC(=O)O)NC(=O)[C@H](Cc3ccccc3)NC1=O)C(=O)N1CCC[C@H]1C(=O)N[C@@H](C)C(=O)N[C@@H](CC(=O)O)C(=O)N[C@@H](CCC(=O)O)C(=O)N[C@@H](C)C(=O)N[C@@H](CC(C)C)C(=O)N2", "note": "[CG4L1-PK15L1-PK15L2 tricyclic] (HELM PEPTIDE1{A.D.E.A.L.C.I.F.D.L.G.F.C.S.D.R.F.R.N.C.P}|CHEM1{[c1c(C[*:1])cc(C[*:3])cc1C[*:2]]}$PEPTIDE1,CHEM1,6:R3-1:R1|PEPTIDE1,CHEM1,13:R3-1:R2|PEPTIDE1,CHEM1,20:R3-1:R3|PEPTIDE1,PEPTIDE1,1:R1-21:R2$$$V2.0)", "values": [{"measurement": "IC50", "setting": "Kallikrein", "value": 15000, "unit": "nM"}]}, {"smiles": "NC(=O)[C@H](CC(=O)O)NC(=O)CNC(=O)[C@H](CO)NC(=O)CNC(=O)[C@H](Cc1ccccc1)NC(=O)OCC1c2ccccc2-c2ccccc21", "note": "[Fmoc-FGSGD-NH2] (HELM PEPTIDE1{[O=C(OCC1c2ccccc2-c2ccccc21)[*:2]].F.G.S.G.D.[am]}$$$$V2.0)", "values": [{"measurement": "fold tighter binding to BSA than the glycine variant Fmoc-GGSGD-NH2", "setting": "[1]", "value": 8, "unit": "fold"}]}, {"smiles": "O=C(O)CNC(=O)OCC1c2ccccc2-c2ccccc21", "note": "[Fmoc-Gly-OH]", "values": [{"measurement": "Kd", "setting": "[1]", "value": 420, "unit": "nM"}]}, {"smiles": "COc1ccc2c(CC(=O)NCCCC[C@H](NC(=O)OCC3c4ccccc4-c4ccccc43)C(=O)O)cc(=O)oc2c1", "note": "[Fmoc-Lys-Mca]", "values": [{"measurement": "Kd", "setting": "[1]", "value": 340, "unit": "nM"}]}, {"smiles": "NC(=O)[C@H](CC(=O)O)NC(=O)CNC(=O)[C@H](CO)NC(=O)CNC(=O)[C@H](Cc1c[nH]c2ccccc12)NC(=O)OCC1c2ccccc2-c2ccccc21", "note": "[Fmoc-WGSGD-NH2] (HELM PEPTIDE1{[O=C(OCC1c2ccccc2-c2ccccc21)[*:2]].W.G.S.G.D.[am]}$$$$V2.0)", "values": [{"measurement": "Kd", "setting": "[1]", "value": "~60", "unit": "nM"}, {"measurement": "fold tighter binding to BSA than Fmoc-FGSGD-NH2", "setting": "[1]", "value": 3, "unit": "fold"}]}, {"smiles": "COc1ccc2c(CC(=O)NCCCCC(N)C(=O)O)cc(=O)oc2c1", "note": "(centres unmarked) [Lys-Mca]", "values": [{"measurement": "binding to BSA (change in anisotropy)", "setting": "[1]", "value": "no binding"}]}, {"smiles": "COc1ccc2c(CC(=O)O)cc(=O)oc2c1", "note": "[Mca-OH]", "values": [{"measurement": "binding to BSA (change in anisotropy)", "setting": "[1]", "value": "did not bind BSA"}]}, {"smiles": "CC[C@H](C)[C@@H]1NC(=O)[C@@H]2CSCc3cc(cc(c3)CSC[C@@H](C(=O)NCC(=O)O)NC(=O)[C@H](Cc3ccccc3)NC(=O)CNC(=O)[C@H](CC(C)C)NC(=O)[C@H](CC(=O)O)NC(=O)[C@H](Cc3ccccc3)NC1=O)CSC[C@H](NC(=O)[C@H](C)N)C(=O)N[C@@H](CO)C(=O)N[C@@H](CC(=O)O)C(=O)N[C@@H](CCCNC(=N)N)C(=O)N[C@@H](Cc1ccccc1)C(=O)N[C@@H](CCCNC(=N)N)C(=O)N[C@@H](CC(N)=O)C(=O)N2", "note": "[PK15L1-CG4L1 bicyclic] (HELM PEPTIDE1{A.C.S.D.R.F.R.N.C.I.F.D.L.G.F.C.G}|CHEM1{[c1c(C[*:1])cc(C[*:3])cc1C[*:2]]}$PEPTIDE1,CHEM1,2:R3-1:R1|PEPTIDE1,CHEM1,9:R3-1:R2|PEPTIDE1,CHEM1,16:R3-1:R3$$$V2.0)", "values": [{"measurement": "IC50", "setting": "Kallikrein", "value": 200, "unit": "nM"}]}, {"smiles": "CC[C@H](C)[C@@H]1NC(=O)[C@@H](NC(=O)[C@H](CC(C)C)NC(=O)[C@H](C)N)CSCc2cc3cc(c2)CSC[C@@H](C(=O)N2CCC[C@H]2C(=O)N[C@@H](C)C(=O)N[C@@H](CC(=O)O)C(=O)N[C@@H](CCC(=O)O)C(=O)O)NC(=O)[C@H](CC(N)=O)NC(=O)[C@H](CCCNC(=N)N)NC(=O)[C@H](Cc2ccccc2)NC(=O)[C@H](CCCNC(=N)N)NC(=O)[C@H](CC(=O)O)NC(=O)[C@H](CO)NC(=O)[C@H](CSC3)NC(=O)[C@H](Cc2ccccc2)NC(=O)CNC(=O)[C@H](CC(C)C)NC(=O)[C@H](CC(=O)O)NC(=O)[C@H](Cc2ccccc2)NC1=O", "note": "[X-CG4L1-PK15L1-Y bicyclic] (HELM PEPTIDE1{A.L.C.I.F.D.L.G.F.C.S.D.R.F.R.N.C.P.A.D.E}|CHEM1{[c1c(C[*:1])cc(C[*:3])cc1C[*:2]]}$PEPTIDE1,CHEM1,3:R3-1:R1|PEPTIDE1,CHEM1,10:R3-1:R2|PEPTIDE1,CHEM1,17:R3-1:R3$$$V2.0)", "values": [{"measurement": "digestion with Cathepsin G", "setting": "Cathepsin G; 0.01 μg enzyme per reaction", "value": "+++"}, {"measurement": "digestion with Cathepsin G", "setting": "Cathepsin G; 0.1 μg enzyme per reaction", "value": "+++"}, {"measurement": "digestion with Subtilisin", "setting": "Subtilisin; 0.009 μg enzyme per reaction", "value": "+++"}, {"measurement": "digestion with Subtilisin", "setting": "Subtilisin; 9 μg enzyme per reaction", "value": "−"}, {"measurement": "digestion with Chymotrypsin", "setting": "Chymotrypsin; 0.01 μg enzyme per reaction", "value": "+++"}, {"measurement": "digestion with Chymotrypsin", "setting": "Chymotrypsin; 10 μg enzyme per reaction", "value": "−"}, {"measurement": "digestion with Trypsin", "setting": "Trypsin; 0.01 μg enzyme per reaction", "value": "+++"}, {"measurement": "digestion with Trypsin", "setting": "Trypsin; 10 μg enzyme per reaction", "value": "−"}, {"measurement": "IC50", "setting": "Kallikrein", "value": 15000, "unit": "nM"}, {"measurement": "digestion with Kalikrein", "setting": "Kalikrein; 0.01 μg enzyme per reaction", "value": "+++"}, {"measurement": "digestion with Kalikrein", "setting": "Kalikrein; 0.1 μg enzyme per reaction", "value": "+++"}, {"measurement": "digestion with Pronase", "setting": "Pronase; 0.01 μg enzyme per reaction", "value": "+++"}, {"measurement": "digestion with Pronase", "setting": "Pronase; 0.1 μg enzyme per reaction", "value": "+++"}, {"measurement": "digestion with Pronase", "setting": "Pronase; 1 μg enzyme per reaction", "value": "+++"}]}]}
